Data reported in patent US20250368649A1, “TETRAHYDROPYRIDOPYRIMIDINE PAN-KRAS INHIBITORS” (Mirati Therapeutics, Inc., priority 2022, published 2025).

Experiments:
H727 cells = experiment: Inhibition of KRas-mediated phosphorylation of ERK (Cisbio HTRF pERK), H727 cells; assay type: cell-based; conditions: Homo sapiens, NCI-H727, 3 h, 3 hr compound incubation
KRas G12V = KRas G12V (Homo sapiens, UniProt P01116, G12V); experiment: biochemical; conditions: Binding to KRas (IC50 nM) G12V, TR-FRET displacement, KRas G12V
ASPC1 cells = experiment: Inhibition of KRas-mediated phosphorylation of ERK (Cisbio HTRF pERK), ASPC1 cells; assay type: cell-based; conditions: Homo sapiens, ASPC1, 3 h, AsPC-1 cells; 3 hr compound incubation
KRas G12C = KRas G12C (Homo sapiens, UniProt P01116, G12C); assay type: binding; conditions: TR-FRET displacement, read-out: Binding to KRas (IC50 nM) G12C
KRas WT = KRas WT (Homo sapiens, UniProt P01116); experiment: KRas binding assay (TR-FRET displacement), KRas WT; conditions: TR-FRET displacement
HCT116 cells = experiment: Inhibition of KRas-mediated phosphorylation of ERK (Cisbio HTRF pERK), HCT116 cells; assay type: cell-based; conditions: Homo sapiens, HCT-116, 3 h, 3 hr compound incubation
H460 cells = experiment: Inhibition of KRas-mediated phosphorylation of ERK (Cisbio HTRF pERK), H460 cells; assay type: cell-based; conditions: Homo sapiens, NCI-H460, 3 h, 3 hr compound incubation
MKN1 cells = experiment: Inhibition of KRas-mediated phosphorylation of ERK (Cisbio HTRF pERK), MKN1 cells; assay type: cell-based; conditions: Homo sapiens, MKN-1, 3 hr compound incubation
In short: (§1)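 On the first day, plate 6,000 cells into each well in RPMI medium with 10% fetal bovine serum.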

A549 cells = experiment: Inhibition of KRas-mediated phosphorylation of ERK (Cisbio HTRF pERK), A549 cells; assay type: cell-based; conditions: Homo sapiens, A549, 3 h, 3 hr compound incubation
KRas G12S = KRas G12S (Homo sapiens, UniProt P01116, G12S); assay type: binding; conditions: TR-FRET displacement, read-out: Binding to KRas (IC50 nM) G12S
KRas G12D = KRas G12D (Homo sapiens, UniProt P01116, G12D); experiment: biochemical; conditions: Binding to KRas (IC50 nM) G12D, TR-FRET displacement, KRas G12D
PSN1 cells = experiment: Inhibition of KRas-mediated phosphorylation of ERK (Cisbio HTRF pERK), PSN1 cells; assay type: cell-based; conditions: Homo sapiens, PSN1, 3 h, 3 hr compound incubation
In short: as §1

H2009 cells = experiment: Inhibition of KRas-mediated phosphorylation of ERK (Cisbio HTRF pERK), H2009 cells; assay type: cell-based; conditions: Homo sapiens, NCI-H2009, 3 hr compound incubation
H358 cells = experiment: Inhibition of KRas-mediated phosphorylation of ERK (Cisbio HTRF pERK), H358 cells; assay type: cell-based; conditions: Homo sapiens, NCI-H358, 3 h, 3 hr compound incubation

KRas G12S, sequence (P01116 1-169 isoform P01116-2 G12S): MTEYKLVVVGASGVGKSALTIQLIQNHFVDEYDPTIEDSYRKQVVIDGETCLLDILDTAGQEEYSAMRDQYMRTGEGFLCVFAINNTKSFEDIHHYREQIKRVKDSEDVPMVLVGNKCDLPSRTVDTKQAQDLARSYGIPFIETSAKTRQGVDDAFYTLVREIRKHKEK
KRas G12C, sequence (P01116 1-169 isoform P01116-2 G12C): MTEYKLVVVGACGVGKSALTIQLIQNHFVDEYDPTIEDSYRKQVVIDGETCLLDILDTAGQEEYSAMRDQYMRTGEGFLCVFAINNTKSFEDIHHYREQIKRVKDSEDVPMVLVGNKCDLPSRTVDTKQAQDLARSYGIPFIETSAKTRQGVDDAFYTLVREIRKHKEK
KRas G12D, sequence (P01116 1-169 isoform P01116-2 G12D): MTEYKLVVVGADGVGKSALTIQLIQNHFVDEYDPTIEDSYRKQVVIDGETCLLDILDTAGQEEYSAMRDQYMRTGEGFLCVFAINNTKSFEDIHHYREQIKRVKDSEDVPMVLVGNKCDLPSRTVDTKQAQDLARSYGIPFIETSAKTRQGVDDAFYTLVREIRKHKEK
KRas G12V, sequence (P01116 1-169 isoform P01116-2 G12V): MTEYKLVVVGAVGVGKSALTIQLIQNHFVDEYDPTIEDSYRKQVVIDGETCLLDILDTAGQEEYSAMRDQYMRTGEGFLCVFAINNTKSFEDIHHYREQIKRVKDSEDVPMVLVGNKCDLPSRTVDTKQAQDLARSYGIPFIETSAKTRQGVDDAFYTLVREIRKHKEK
KRas WT, sequence (P01116 1-169 isoform P01116-2): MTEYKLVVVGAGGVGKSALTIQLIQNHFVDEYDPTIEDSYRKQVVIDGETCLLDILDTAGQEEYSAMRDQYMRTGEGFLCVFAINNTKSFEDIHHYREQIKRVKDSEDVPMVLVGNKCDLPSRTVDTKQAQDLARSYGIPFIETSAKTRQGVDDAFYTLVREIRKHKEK

C=C1CN2CCCC2(COc2nc3c(c(N4CCCC5(CCO5)C4)n2)CCN(c2cc(O)cc4ccc(F)c(CC)c24)C3)C1 (centres unmarked) [Example 713, 5-ethyl-6-fluoro-4-(2-((2-methylenetetrahydro-1H-pyrrolizin-7a(5H)-yl)methoxy)-4-(1-oxa-6-azaspiro[3.5]nonan-6-yl)-5,8-dihydropyrido[3,4-d]pyrimidin-7(6H)-yl)naphthalen-2-ol]
IC50 (H727 cells): 67 nM
IC50 (KRas G12V): < 2 nM
IC50 (ASPC1 cells): 51 nM
IC50 (KRas G12C): < 2 nM
IC50 (KRas WT): < 2 nM
IC50 (HCT116 cells): 253 nM
IC50 (H460 cells): 127 nM
IC50 (MKN1 cells): 10.5 nM
IC50 (A549 cells): 92 nM
IC50 (KRas G12S): < 2 nM
IC50 (KRas G12D): 2 nM
IC50 (PSN1 cells): 1800 nM
IC50 (H2009 cells): 17 nM
IC50 (H358 cells): 29 nM
